According to patent publication US20060216775A1, “Compositions and methods for analysis and manipulation of enzymes in biosynthetic proteomes” (priority 2003, published 2006):

Biological target: T1, VibB (UniProt P0C6D3+P39135)
T1 construct: made in house; host or cells: E. coli BL21 (DE3), crude lysate
Assay type: biochemical, Vibrio cholera
Conditions: cell lysate of E. coli BL21 producing VibB, recombinant Sfp, SDS-PAGE, UV irradiation
Source text: To investigate PPTase transfer of non-thioester CoA derivatives, Sfp was used for post-translational modification of known, heterologously expressed CP domains (FIG. 11). As a first experiment, VibB was used. VibB is a small protein from the Vibrio cholera vibriobactin biosynthetic machinery that consists of a modular NRP synthase system. VibB contains only one carrier protein domain and as such is a perfect model system due to its small size and facile expression in E. coli. Cell lysate was collected from induced E. coli BL21 cells producing VibB from a pET24 expression vector. An aliquot of this lysate was incubated with CoA-BODIPY derivative and recombinant Sfp and analyzed by SDS-PAGE. […] Coomassie staining of the gel confirmed the band to be fluorescently-tagged VibB (32.6 kD) (FIG. 11C). […]
One Liter of E. Coli BL21 (DE3) cells induced to express recombinant VibB, FrenACP, OtcACP, and TcmACP, each in pET22b vectors (Novagen, Madison, Wis.), were pelleted, resuspended, and lysed by sonication in 30 mL 0.1 M Tris-Cl pH 8.0 with 1% glycerol in the presence of 500 μL of a 10 mM protease inhibitor cocktail containing bestatin, pepstatin A, E-64, and phosphoramidon (Sigma-Aldrich) and sonicated by pulsing for 5 minutes on ice. […] Protein concentration was determined using the Bradford method with bovine serum albumin (Sigma-Aldrich) as a standard.

T1 sequence (P39135 whole entry): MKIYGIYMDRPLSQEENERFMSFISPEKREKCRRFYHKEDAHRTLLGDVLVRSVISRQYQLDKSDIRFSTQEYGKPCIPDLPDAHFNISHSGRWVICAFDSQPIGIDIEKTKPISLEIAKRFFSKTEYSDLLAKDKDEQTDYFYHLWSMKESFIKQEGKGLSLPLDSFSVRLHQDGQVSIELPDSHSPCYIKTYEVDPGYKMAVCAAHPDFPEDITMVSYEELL
T1 sequence (P0C6D3 whole entry): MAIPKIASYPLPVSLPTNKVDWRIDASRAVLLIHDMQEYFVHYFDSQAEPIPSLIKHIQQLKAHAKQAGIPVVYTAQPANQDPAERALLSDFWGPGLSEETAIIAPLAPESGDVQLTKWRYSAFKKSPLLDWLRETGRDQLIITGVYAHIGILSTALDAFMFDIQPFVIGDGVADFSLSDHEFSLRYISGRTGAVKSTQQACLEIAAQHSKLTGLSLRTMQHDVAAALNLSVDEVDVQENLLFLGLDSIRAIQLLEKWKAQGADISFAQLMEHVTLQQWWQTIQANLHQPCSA

Compound: O=C(O)c1cc(N2C(=O)C=CC2=O)ccc1-c1c2cc(F)c(=O)cc-2oc2cc(O)c(F)cc12 [1b, Oregon Green® 488 maleimide]
- fluorescent labeling of VibB: Comparable labeling
